Records with an inconclusive call do not appear.
molecular target: Virion infectivity factor (Human immunodeficiency virus type 1 group M subtype B (isolate BH10)) + Virion infectivity factor (Human immunodeficiency virus type 1 group M subtype B (isolate BRU/LAI)) + Virion infectivity factor (Human immunodeficiency virus type 1 group M subtype B (isolate PCV12)) + Virion infectivity factor (Human immunodeficiency virus type 1 group M subtype B (isolate HXB2)) + DNA dC->dU-editing enzyme APOBEC-3G (Homo sapiens) (UniProt P69720+P69721+P69722+P69723+Q9HC16); experiment: HIV-1 Vif–A3G interaction blockers – biochemical, TR-FRET, GST-Vif 1-94, biotin-A3G peptide, dose response retest, primary screen (AID 1117319); settings: TR-FRET GST-Vif / biotin-A3G peptide binding;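 note: Vif residues 1-94 fused to GST binding biotinylated APOBEC3G peptide 110-148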

**Q.** For `Cc1ccc(N2C(=O)/C(=C/c3ccc(CN(CCC#N)S(C)(=O)=O)o3)C(=O)NC2=S)cc1`, which IC50 is on record?
**A.** 8.32 µM

**Q.** For `CC(=O)c1sc2nc(-c3ccco3)ccc2c1N`, which IC50 is on record?
**A.** 2.78 µM

**Q.** Which IC50 does the source give for `CC(=O)OC1COC(n2ccc3ccccc32)C(OC(C)=O)C1OC(C)=O` (stereo unspecified) here?
**A.** 22.6 µM

**Q.** For `O=C(COC(=O)c1c2c(nc3ccccc13)/C(=C\c1ccco1)CC2)NC1CCCC1`, which IC50 is on record?
**A.** 3.67 µM

**Q.** For `Cc1nc2nc(C)c(CCC(=O)N3CCN(c4ccccc4)CC3)c(C)n2n1`, which IC50 is on record?
**A.** 59.5 µM

**Q.** `CCN(CC)Cc1cc(O)c(CN(CC)CC)cc1O` was tested. Which IC50 did it give?
**A.** 10.8 µM

**Q.** How did the IC50 turn out when `N#CC1=C(Nc2ccccc2)SC=C(c2ccc(Br)cc2)N=C1N1CCOCC1` was run?
**A.** 97.1 µM

**Q.** Which IC50 does the source give for `O=C(N/N=C/C=C/c1ccco1)c1cccs1` here?
**A.** 7.15 µM

**Q.** Which IC50 does the source give for `CCOC(=O)NC1(NC2CCCCC2)Oc2ccccc2O1` here?
**A.** 7.31 µM

**Q.** Which IC50 does the source give for `COc1ccc(C2CC(=O)N3CN(c4ccc(C)c(Cl)c4)CSC3=C2C#N)cc1` (stereo unspecified) here?
**A.** 81.2 µM

**Q.** For `Cc1ccc(C(=O)Nc2ccc(O)c(C(=O)O)c2)o1`, which IC50 is on record?
**A.** 3.87 µM

**Q.** With `O=C(Cc1cc(=O)[nH][nH]1)N/N=C/C=C/c1ccccc1` as the compound, how does the IC50 read?
**A.** 26.4 µM

**Q.** For `O=C1CC(SC(=S)C2CCCC2=O)C(=O)N1` (stereo unspecified), which IC50 is on record?
**A.** 27.8 µM

**Q.** With `NC(=O)Cn1c(=O)n(Cc2ccco2)c(=O)c2c3c(sc21)CCCCC3` as the compound, how does the IC50 read?
**A.** 3.8 µM

**Q.** How did the IC50 turn out when `O=C(CN1C(=O)NC2(CCCCCCC2)C1=O)NCc1cccs1` was run?
**A.** 11.1 µM

**Q.** `O=C(O)C[C@@H]1C(=O)O[C@@H]2C(COC(=O)c3cc(O)c(O)c(O)c3)O[C@@H](OC(=O)c3cc(O)c(O)c(O)c3)[C@@H](OC(=O)c3cc(O)c(O)c4c3[C@H]1[C@H](O)C(=O)O4)[C@H]2OC(=O)c1cc(O)c(O)c(O)c1` (stereo partly specified) was tested. Which IC50 did it give?
**A.** < 0.195 µM

**Q.** Which IC50 does the source give for `CCCCCC#CCC#CCC#CCC#CCCCC(=O)O` here?
**A.** 0.86 µM

**Q.** For `CCOc1ccccc1NC(=O)CCS(=O)(=O)c1ccc(Br)cc1`, which IC50 is on record?
**A.** 7.52 µM

**Q.** For `O=C(NCc1ccccc1)c1ccc2nc(-c3ccco3)c(-c3ccco3)nc2c1`, which IC50 is on record?
**A.** 0.48 µM

**Q.** For `CNc1ccc(Br)cc(C(=O)/C=C/c2ccc(OC)cc2)c1=O`, which IC50 is on record?
**A.** 3.53 µM

**Q.** For `CC(=O)C1=C(C)NC(C)=C(C(C)=O)C1c1cccs1`, which IC50 is on record?
**A.** 23.5 µM

**Q.** For `CS(=O)(=O)c1ccc2c(c1)SC1=NC(=O)/C(=C/c3ccco3)C(=N)N12`, which IC50 is on record?
**A.** 6.32 µM

**Q.** With `CCn1c(SCC(=O)Nc2cc(C)on2)nnc1-c1cccnc1` as the compound, how does the IC50 read?
**A.** 9.51 µM

**Q.** With `Cc1cccc(NC(=O)CNC(=O)c2cccc(-n3cccc3)c2)c1C` as the compound, how does the IC50 read?
**A.** 12.2 µM

**Q.** Which IC50 does the source give for `CCc1ccc(CC)c(S(=O)(=O)Nc2ccc(C(=O)O)c(O)c2)c1` here?
**A.** 35.3 µM

**Q.** Which IC50 does the source give for `Cc1cc(-c2n[nH]c(=S)n2/N=C/C=C/c2ccco2)n[nH]1` here?
**A.** 6.02 µM

**Q.** Which IC50 does the source give for `O=C1C2C3C=CC(C3)C2C(=O)N1CNc1ccc(O)cc1` (stereo unspecified) here?
**A.** 2.78 µM

**Q.** Which IC50 does the source give for `FC(F)(F)c1cc(-c2ccco2)nc(NCc2ccco2)n1` here?
**A.** 4.24 µM

**Q.** `CCC(C)(C)n1nnnc1C(c1ccc2ncccc2c1)N1CCN(c2ccc(O)cc2)CC1` (stereo unspecified) was tested. Which IC50 did it give?
**A.** 4.65 µM

**Q.** How did the IC50 turn out when `COc1cccc2c1NC(C(=O)O)C1CC=CC21` (stereo unspecified) was run?
**A.** < 0.398 µM

**Q.** Which IC50 does the source give for `CC(C)C1Nc2ccc(C(=O)O)cc2C2C=CCC21` (stereo unspecified) here?
**A.** 8.06 µM

**Q.** With `S=c1nc(-c2ccc(Br)cc2)oc2c1CCCC2` as the compound, how does the IC50 read?
**A.** 61.7 µM

**Q.** For `CC1(C)C/C(=C(/C#N)C(N)=O)CCO1`, which IC50 is on record?
**A.** 80.7 µM

**Q.** Which IC50 does the source give for `O=C(NC1CC1)c1cc(-c2ccco2)nc2ccccc12` here?
**A.** 2.53 µM

**Q.** Which IC50 does the source give for `O=C1CC=C2C3CC4N(CCC45c4cc(O)c(O)cc4N1C25)CC3=CCBr` (stereo unspecified) here?
**A.** 0.7 µM

**Q.** Which IC50 does the source give for `O=[N+]([O-])c1ccc(N2CCN(c3ccc(Cl)nn3)CC2)c(Cl)c1` here?
**A.** 99.1 µM

**Q.** For `Cc1nc2ncccn2c1-c1csc(NCc2ccco2)n1`, which IC50 is on record?
**A.** 1.22 µM

**Q.** For `CC1CC(=O)c2c(cc3c(-c4c(O)cc(O)c5c(O)c6c(cc45)OC(C)CC6=O)c(O)cc(O)c3c2O)O1` (stereo unspecified), which IC50 is on record?
**A.** 0.41 µM

**Q.** `COc1ccc(-c2nc3ccccc3n2OC(=O)N(C)C)cc1` was tested. Which IC50 did it give?
**A.** 42.9 µM

**Q.** For `C=CCn1c(Sc2nc(C)cs2)nc2c1c(=O)[nH]c(=O)n2C`, which IC50 is on record?
**A.** 94.2 µM

**Q.** How did the IC50 turn out when `Cc1cc(C(=O)CSc2nnnn2-c2ccccc2)c(C)n1CC1CCCO1` (stereo unspecified) was run?
**A.** 9.78 µM

**Q.** Which IC50 does the source give for `CN(C)[C@@H]1C(=O)C(C(N)=O)=C(O)[C@@]2(O)C(=O)C3=C(O)c4c(O)ccc(Cl)c4[C@@](C)(O)C3C[C@@H]12` (stereo partly specified) here?
**A.** 7.02 µM

**Q.** Which IC50 does the source give for `Oc1ccc(/C=C/c2cc(O)cc(O)c2)cc1` here?
**A.** 25.3 µM

**Q.** For `COc1ccc(NS(=O)(=O)c2cccc(C(=O)NNC(=O)c3cccn3C)c2)cc1`, which IC50 is on record?
**A.** 12.7 µM

**Q.** `COC1=CC(=O)C(C2CC(=O)c3c(O)cc(O)cc3O2)=CC1=O` (stereo unspecified) was tested. Which IC50 did it give?
**A.** 15 µM

**Q.** For `CC(/C=C/c1ccco1)=N\NC(=O)c1cccnc1`, which IC50 is on record?
**A.** 20.3 µM

**Q.** With `O=C(O)CSc1c2c(nc3cc(C(=O)N4CCOCC4)ccc13)CCCC2` as the compound, how does the IC50 read?
**A.** 5.6 µM

**Q.** Which IC50 does the source give for `C=CCN=c1scc(-c2ccco2)n1/N=C/c1ccc(O)c(O)c1O` here?
**A.** 1.38 µM

**Q.** `Cn1c(SCC(=O)c2cc(Cl)c(Cl)s2)nnc1-c1ccco1` was tested. Which IC50 did it give?
**A.** 30.7 µM

**Q.** `CCOC(=O)C1CCN(C(=O)COc2ccc(S(=O)(=O)NC(C)C)cc2)CC1` was tested. Which IC50 did it give?
**A.** 27.8 µM

**Q.** How did the IC50 turn out when `CCOc1cccc(=O)c2c(C)n(-c3ccc(C(=O)O)cc3)c(C)c12` was run?
**A.** 4.49 µM

**Q.** How did the IC50 turn out when `O=C1OC(c2ccc(F)cc2)=C/C1=C\c1ccc([N+](=O)[O-])o1` was run?
**A.** 8.61 µM

**Q.** How did the IC50 turn out when `c1coc(-c2nc(-c3ccco3)c(-c3ccco3)nc2-c2ccco2)c1` was run?
**A.** 0.35 µM

**Q.** With `O=C(O)Cc1cccc(=O)c(O)c1C(=O)O` as the compound, how does the IC50 read?
**A.** 8.19 µM

**Q.** With `COc1cccc(CNCCc2c[nH]c3ccccc23)c1OCc1ccccc1` as the compound, how does the IC50 read?
**A.** 56 µM

**Q.** Which IC50 does the source give for `Cn1c(N)c(C(=O)COC(=O)C2CCCCC2)c(=O)n(C)c1=O` here?
**A.** 92.9 µM

**Q.** Which IC50 does the source give for `O=C(/C=C/c1cccs1)Nc1ccc(Br)cn1` here?
**A.** 10.2 µM

**Q.** With `COc1cc(N(C)C)ccc1C=c1c2ccccc2n2c1cc(-c1ccccc1)[n+]2C` as the compound, how does the IC50 read?
**A.** 5.33 µM

**Q.** How did the IC50 turn out when `CCOC(=O)c1c(C)oc2c1c(C=NCc1ccccn1)c(O)c1ccccc12` was run?
**A.** 1.86 µM

**Q.** Which IC50 does the source give for `O=C(Nc1ccc(F)cc1F)c1noc2c1CCC2` here?
**A.** 12.8 µM

**Q.** With `O=C(Nc1cc(Cl)ccn1)C1CCN(S(=O)(=O)c2cccs2)CC1` as the compound, how does the IC50 read?
**A.** 56.8 µM

**Q.** How did the IC50 turn out when `CC1(C)CC2(CC(c3ccccc3F)c3ccc(O)c(O)c3O2)NC(=S)N1` (stereo unspecified) was run?
**A.** 13.7 µM

**Q.** `O=[N+]([O-])c1ccccc1S(=O)(=O)NC1CCCC1` was tested. Which IC50 did it give?
**A.** 12.9 µM

**Q.** With `Cc1cccc(C)c1NC(=O)c1ccc(-n2cnnn2)cc1` as the compound, how does the IC50 read?
**A.** 35.8 µM

**Q.** Which IC50 does the source give for `CCc1cc2cc(C)cc(C)c2nc1SCC(=O)N1CCN(C(=O)c2ccco2)CC1` here?
**A.** 12.6 µM

**Q.** `CN1CCc2cccc3c2[C@@H]1Cc1ccc(O)c(O)c1-3` was tested. Which IC50 did it give?
**A.** 1.66 µM

**Q.** `CN=c1scc(-c2cccs2)n1/N=C/c1ccc(O)c(O)c1O` was tested. Which IC50 did it give?
**A.** 1.95 µM

**Q.** For `CCOC(=O)c1ccc(CC(=O)c2ccc(O)c(O)c2O)o1`, which IC50 is on record?
**A.** 11.5 µM

**Q.** For `COC/C=C/C1=CC2=CC(=O)C(C)(OC(=O)c3cnc4ccccc4n3)C(=O)C2=CN1c1ccccc1` (stereo unspecified), which IC50 is on record?
**A.** 2.74 µM

**Q.** For `Oc1ccc(-c2cn3c(n2)SCC3)cc1O`, which IC50 is on record?
**A.** 1.11 µM

**Q.** How did the IC50 turn out when `Cc1c(Br)c(O)c(Br)c2sc(=O)oc12` was run?
**A.** 1.77 µM

**Q.** For `COC(=O)c1ccc(COc2ccc(/C=N/Nc3cccc(C(=O)O)c3)cc2)cc1`, which IC50 is on record?
**A.** 63.2 µM

**Q.** For `Cc1cc(SCC(=O)N/N=C/c2ccc(O)c(O)c2O)c(C)cc1Br`, which IC50 is on record?
**A.** 13.3 µM

**Q.** With `Cc1c(O)cc2c(c1O)C(=O)CC(c1ccc(O)cc1)O2` (stereo unspecified) as the compound, how does the IC50 read?
**A.** 2.68 µM

**Q.** Which IC50 does the source give for `O=C(Nc1ccccc1-c1nnn(CC(=O)N2CCc3ccccc3C2)n1)C1CCC1` here?
**A.** 91 µM

**Q.** Which IC50 does the source give for `O=C(O)CC1OCC=C2CN3CCC45C6=CC(=O)C(=O)C([N+](=O)[O-])=C6NC4C1C2CC35` (stereo unspecified) here?
**A.** 16.3 µM

**Q.** `O=C1C=C(N2CC2)c2ccccc2C1=O` was tested. Which IC50 did it give?
**A.** 11.3 µM

**Q.** For `Cc1ccc(NC(=O)CN(C)C(=O)c2cccc(-n3cccc3)c2)cc1`, which IC50 is on record?
**A.** 4.56 µM

**Q.** For `COc1ccc(/C=N/NC(=O)CNc2n[nH]c(=O)[nH]c2=O)cc1OC`, which IC50 is on record?
**A.** 42.6 µM

**Q.** For `Cc1nccn1CC(=O)N/N=C/c1ccc(O)c(O)c1`, which IC50 is on record?
**A.** 23.2 µM

**Q.** With `O=C(NCc1ccccn1)c1ccc2nc(-c3ccco3)c(-c3ccco3)nc2c1` as the compound, how does the IC50 read?
**A.** 0.45 µM
